Values of other authors in patent publication US20230310417A1, “INJECTABLE ARIPIPRAZOLE FORMULATION” (CIPLA LIMITED, priority 2020, published 2023).

Conditions: room temperature

O=C1CCc2ccc(OCCCCN3CCN(c4cccc(Cl)c4Cl)CC3)cc2N1 [Aripiprazole]
aqueous solubility: < 1 µg/mL
